In ChEMBL document CHEMBL1145114, “The combi-targeting concept: chemical dissection of the dual targeting properties of a series of "combi-triazenes"” (J Med Chem, 2003) one finds IC50 data, which are given here for 20 compounds.

Test [1] has as its system NIH3T3. In words: cells. To be noted: Mus musculus.
Description: Selective inhibition of serum stimulated growth of NIH3T3 isogenic cells
The test system of test [2] is A-431. In words: In vitro inhibition of A431 (human carcinoma) cell basal growth. Format: functional, cell-based.
The subject of test [3] is NIH3T3. In words: cells. To be noted: Mus musculus. This is another data set of the same source.
Description: Selective inhibition of serum stimulated growth of NIH3T3neu isogenic cells
The target of test [4] is Epidermal growth factor receptor (Homo sapiens, UniProt P00533). As to the kind of experiment: In vitro inhibition of Epidermal growth factor receptor tyrosine kinase isolated from A431 (human carcinoma).
Sequence of Epidermal growth factor receptor (P00533 whole entry): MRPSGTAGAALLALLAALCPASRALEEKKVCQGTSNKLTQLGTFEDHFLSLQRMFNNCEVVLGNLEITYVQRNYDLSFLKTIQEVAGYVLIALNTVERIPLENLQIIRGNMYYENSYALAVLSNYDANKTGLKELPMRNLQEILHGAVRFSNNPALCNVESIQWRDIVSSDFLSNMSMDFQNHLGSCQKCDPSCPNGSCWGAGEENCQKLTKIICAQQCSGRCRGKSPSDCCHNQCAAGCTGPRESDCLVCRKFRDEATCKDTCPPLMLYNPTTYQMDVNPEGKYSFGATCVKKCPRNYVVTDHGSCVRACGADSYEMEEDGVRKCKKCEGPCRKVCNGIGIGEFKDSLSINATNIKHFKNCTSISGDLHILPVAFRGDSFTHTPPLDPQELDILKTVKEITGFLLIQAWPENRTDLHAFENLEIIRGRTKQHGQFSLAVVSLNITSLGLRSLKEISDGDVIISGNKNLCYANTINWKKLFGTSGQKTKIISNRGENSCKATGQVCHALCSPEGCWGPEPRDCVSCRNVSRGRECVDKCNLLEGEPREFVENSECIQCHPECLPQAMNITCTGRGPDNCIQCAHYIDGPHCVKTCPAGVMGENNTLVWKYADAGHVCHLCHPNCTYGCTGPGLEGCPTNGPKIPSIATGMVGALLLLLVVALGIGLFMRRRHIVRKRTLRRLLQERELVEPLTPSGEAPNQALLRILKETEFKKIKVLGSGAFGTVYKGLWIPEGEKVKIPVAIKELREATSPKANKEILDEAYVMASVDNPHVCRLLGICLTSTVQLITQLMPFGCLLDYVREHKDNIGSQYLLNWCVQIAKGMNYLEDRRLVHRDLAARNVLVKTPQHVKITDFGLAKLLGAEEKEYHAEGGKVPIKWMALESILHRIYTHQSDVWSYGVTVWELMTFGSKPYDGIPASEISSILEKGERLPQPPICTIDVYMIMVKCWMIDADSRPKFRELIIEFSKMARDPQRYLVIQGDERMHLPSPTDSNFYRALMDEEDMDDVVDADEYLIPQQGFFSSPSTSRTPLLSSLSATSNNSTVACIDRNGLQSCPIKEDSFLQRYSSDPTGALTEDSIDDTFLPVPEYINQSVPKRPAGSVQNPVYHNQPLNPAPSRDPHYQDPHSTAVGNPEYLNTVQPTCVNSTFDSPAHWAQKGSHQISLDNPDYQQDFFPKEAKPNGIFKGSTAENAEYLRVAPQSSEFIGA

As for `CN=NNc1ccc2ncnc(N(C)c3ccccc3)c2c1`, the IC50 amounted to 30.5 µM in test [1], 89.5 µM in test [2], 81 µM in test [3] and 8 µM in test [4].
On the same counts, the results for `CN(c1ccccc1)c1ncnc2ccc(NN=NCc3ccccn3)cc12` are 39.4 µM, 25.1 µM, 64.1 µM and 9.3 µM.
In the case of `CN(C)CCN=NNc1ccc2ncnc(Nc3cccc(Br)c3)c2c1`, the 50% inhibitory concentration (IC50) in test [1] is 16.7 µM; in test [2], 12.4 µM; in test [3], 3.4 µM; in test [4] it was 0.038 µM.
In the case of `Cc1cccc(Nc2ncnc3ccc(/N=N/N(C)C)cc23)c1`, the IC50 is 50.8 µM in test [1], 94 µM in test [2], 6.94 µM in test [3] and 0.024 µM in test [4].
In the case of `C/N=N/Nc1ccc2ncnc(Nc3cccc(C)c3)c2c1`, the IC50 was found to be 68.3 µM in test [1], 23.2 µM in test [2] and 9.69 µM in test [3].
In the case of `CN(C)/N=N/c1ccc2ncnc(Nc3cccc(Cl)c3)c2c1`, the IC50 in test [1] came to 60.4 µM; in test [2], 100 µM; in test [3] it was 3.09 µM; in test [4], 0.014 µM.
Regarding `C/N=N/Nc1ccc2ncnc(Nc3cccc(Cl)c3)c2c1`, the IC50 in test [1] was found to be 32.1 µM; in test [2], 16.7 µM; in test [3] it was 4.16 µM.
Take `COCC/N=N/Nc1ccc2ncnc(Nc3cccc(Br)c3)c2c1`: the figures for the IC50 in test [1], in test [2] and in test [3] were 42.9 µM, 40 µM and 2.98 µM, respectively.
As to `Brc1cccc(Nc2ncnc3ccc(N/N=N/CCN4CCOCC4)cc23)c1`, the IC50 in test [1] was determined as 22.2 µM; in test [2] it was 33 µM; in test [3], 2.92 µM; in test [4], 0.064 µM.
For `Cc1cccc(Nc2ncnc3ccc(N)cc23)c1`, the IC50 in test [1] came out at 90 µM; in test [2], 65 µM; in test [3] it was 7.2 µM.
Regarding `CN(c1ccccc1)c1ncnc2ccc(N)cc12`, the IC50 in test [1] turned out to be 71.4 µM; in test [2], 116 µM; in test [3], 99.4 µM; in test [4] it was 8.4 µM.
As to `CN=NNc1ccc2ncnc(NCc3ccccc3)c2c1`, the IC50 in test [1] came to 50.3 µM; in test [2], 20 µM; in test [3], 34.9 µM; in test [4] it was 0.335 µM.
With `Nc1ccc2ncnc(NCc3ccccc3)c2c1`, the IC50 in test [1] worked out at 96.7 µM; in test [2] it was 25 µM; in test [3], 33.8 µM; in test [4], 0.508 µM.
For the compound `Brc1cccc(Nc2ncnc3ccc(NN=NCc4ccccn4)cc23)c1`, the IC50 was found to be 30.6 µM in test [1], 11.4 µM in test [2], 4.06 µM in test [3] and 0.238 µM in test [4].
`CN(C)/N=N/c1ccc2ncnc(NCc3ccccc3)c2c1`: the IC50 in test [1] is 67.3 µM; in test [2], 50.3 µM; in test [3], 33.9 µM; in test [4] it was 0.482 µM.
As for `Nc1ccc2ncnc(Nc3cccc(Br)c3)c2c1`, the IC50 was 52.9 µM in test [1], 45 µM in test [2] and 4.1 µM in test [3].
As for `CN(C)/N=N/c1ccc2ncnc(N(C)c3ccccc3)c2c1`, the IC50 in test [1] amounted to 47 µM; in test [2], 29.8 µM; in test [3] it was 31.6 µM; in test [4], 13.3 µM.
Taken in the same sequence, the figures for `Brc1cccc(Nc2ncnc3ccc(NN=NCc4ccccc4)cc23)c1` were 60.2 µM, 20 µM, 11.2 µM and 0.025 µM.
For the compound `CN(C)/N=N/c1ccc2ncnc(Nc3cccc(Br)c3)c2c1`, the IC50 is 52.5 µM in test [1], 100 µM in test [2], 3.74 µM in test [3] and 0.011 µM in test [4].
`C/N=N/Nc1ccc2ncnc(Nc3cccc(Br)c3)c2c1`: the IC50 in test [1] was found to be 33 µM; in test [2], 16 µM; in test [3] it was 4.32 µM.
